# Data: patent US7655392B2, “Quenching methods for red blood cell inactivation process” (priority 2004, dated 2010)
# “And” between values parts separate entries of the source, which are not always exact repeats. Equal values may be shown once. Read-outs that look alike come from different tables or passages of the source.
# Columns and labels:
# red blood cells = assay type: cell-based; details: for Mean fluorescence intensity: RBC in Erythrosol pH 7.3 no wash
# Protocol: In another assay, the rabbit polyclonal sera may be reacted with treated red blood cells. After washing off unbound antibody, a FITC labeled goat anti-rabbit Fab′2 fragment (anti H+L chains, Caltag) is added. The binding of FITC label to the red blood cells correlates with the amount of acridine bound to the red blood cell surface, and is assessed by FACScan™ analysis (Becton, Dickinson and Co., NJ). The relative modification of the red blood cells is determined from the FACScan™ mean fluorescence value.
# A 20 mL sample of leukoreduced whole blood (Blood Source, Sacramento, Calif.) was centrifuged at 4,100×g for 5 minutes at room temperature in each of four 50 mL centrifuge tubes. The supernatant was removed from each tube to provide red cell concentrate (RCC). […] For each washed RCC, cells were resuspended in 5 mL of the solution used for washing. This is now referred to as the RBC test sample. […] These samples were incubated for 20 hours at room temperature. After incubation, the RBC were washed in BBS (Blood Bank Saline, 0.9% saline, unbuffered, Fisher Scientific) and were diluted to a final hematocrit of 4%. A 25 μL aliquot of each was mixed with 15 μL of rabbit polyclonal anti-acridine sera diluted 1:100 in BBS and the mixture was incubated at 37° C. for 30 minutes. The cells were subsequently washed with 1.5 mL BBS. After washing was complete, the cells were mixed with 50 μL of FITC labeled goat anti-rabbit Fab′2 fragment (1:64 dilution in BBS) and incubated at 37° C. for 30 minutes. […] Note that the quenching improves as glutathione is neutralized with increasing amounts of sodium hydroxide.
# The FACScan analysis of the binding of rabbit anti-acridine sera to treated red cells was used to assess a variety of quenching conditions. […] The tables represent data from two different experiments, each with samples treated under standard conditions or with 20 mM neutralized glutathione. […] The data within an experiment provides the relative efficacy of the various treatments. Because the assay may depend on the lot of red blood cells used, the absolute values of mean fluorescence may vary from one study to the next, such that relative values should only be compared within a given experiment. […] Neutralized glutathione at 20 mM results in close to background levels.
# An untreated control sample as well as a standard sample (co-addition of 2 mM acidic glutathione with 0.2 mM PIC-1) were also assessed.
# Full units of red cell concentrates (Interstate Blood Bank, Inc., Memphis, Tenn.) were leukoreduced. A volume of 200 mL of this RCC (80% hematocrit) was mixed with 94 mL of Erythrosol or 100 mL of Adsol (Baxter Healthcare Corp., Deerfield, Ill.) as control (unit 1). A volume of 20 mL 8% dextrose was used to dissolve PIC-1 (mg) and acid glutathione (mg) and added to one unit to provide 0.2 mM PIC-1 and 2 mM glutathione (unit 2). […] For the glutathione, 1.2 mL of 10 N NaOH was added (2 equivalents). The PIC-1 was mixed with the unit, followed 1 minute later (unit 3) or 5 minutes later (unit 4) by glutathione. For unit 5, neutralized glutathione was mixed first, followed 10 minutes later by the PIC-1. […] All units were mixed by grasping the ends of the blood bag and mixing in a FIG. 8 motion 30 times. These were then incubated at room temperature for 20 hours total. A compound adsorption device (CAD), comprising a polymeric resin contained within a mesh pouch, was used for all but the control sample. This device is intended to remove residual PIC-1, PIC-1 breakdown products, and glutathione from the samples. Samples were incubated for 8 hours, then transferred to a second blood bag containing the CAD and incubated for an additional 12 hours. Following the room temperature incubation, samples were transferred to a refrigerator (4° C.) and stored up to 43 days.
# [1] = system: Vesicular Stomatitis Virus (VSV); assay type: cell-based
# leukocytes = details: standard pathogen inactivation conditions; cited from earlier work
# [2] = Co-formulation of PIC-1 with neutralized glutathione in one solution (observation); assay type: physicochemical; details: PIC-1 and 20 mM glutathione neutralized with NaOH in one solution (Table 2A samples 4-6)
# Description: The methods of the invention result in adequate inactivation of possible pathogen contaminants in red blood cell compositions with improved quenching as compared to known methods. […] In some embodiments, the quencher is acidic and is neutralized with 1 to 2 equivalents of a suitable base, such as sodium hydroxide. In a preferred embodiment, the quencher is glutathione neutralized with 2 equivalents of base. In a preferred embodiment, the pathogen inactivating compound comprises an acridine group linked to a mustard group via an ester bond. […] The quencher may be added to the red blood cell composition before, after, or simultaneously with the pathogen inactivating compound. In some embodiments, the quencher is added in the time range of about 30 minutes prior to pathogen inactivating compound up to about 10 minutes following pathogen inactivating compound. In some embodiments, the quencher and pathogen inactivating compound may be added essentially simultaneously but separately. […] Because of the high concentration of glutathione required for adequate quenching, the pathogen inactivating compound precipitates when these are in the same solution in high concentrations. Once added to the red blood cell composition, they are sufficiently diluted and buffered as to both be completely soluble.
structure (smiles),measurement,setting,value
O=C(CCNc1c2ccccc2nc2ccccc12)OCCN(CCCl)CCCl [PIC-1],Mean fluorescence intensity,"red blood cells; 0.2 mM PIC-1, 2 mM GSH",108
same,Mean fluorescence intensity,"red blood cells; 0.2 mM PIC-1, 20 mM GSH+0.9 eq NaOH",17.0
same,Mean fluorescence intensity,"red blood cells; 0.2 mM PIC-1, 20 mM GSH+1.5 eq NaOH",8.1
same,Mean fluorescence intensity,"red blood cells; 0.2 mM PIC-1, 20 mM GSH+2 eq NaOH",6.0
same,mean fluorescence,"red blood cells; Table 9A: 0.2 mM PIC-1+2 mM GSH, 0 eq NaOH, no delay (standard)",114
same,mean fluorescence,"red blood cells; Table 9A: 5 mM Cys+2 eq NaOH, then 0.2 mM PIC-1 after 5 min",8
same,mean fluorescence,"red blood cells; Table 9A: 5 mM Cys+2 eq NaOH, then 0.2 mM PIC-1 after 10 min",10.8
same,mean fluorescence,"red blood cells; Table 9A: 5 mM Cys+2 eq NaOH, then 0.2 mM PIC-1 after 20 min",8
same,mean fluorescence,"red blood cells; Table 9A: 10 mM Cys+2 eq NaOH, then 0.2 mM PIC-1 after 10 min",2.9
same,mean fluorescence,"red blood cells; Table 9A: 15 mM Cys+2 eq NaOH, then 0.2 mM PIC-1 after 10 min",1.9
same,mean fluorescence,"red blood cells; Table 9A: 20 mM Cys+2 eq NaOH, then 0.2 mM PIC-1 after 5 min",1.9
same,mean fluorescence,"red blood cells; Table 9A: 20 mM Cys+2 eq NaOH, then 0.2 mM PIC-1 after 10 min",1.9
same,mean fluorescence,"red blood cells; Table 9A: 20 mM Cys+2 eq NaOH, then 0.2 mM PIC-1 after 20 min",2
same,mean fluorescence,"red blood cells; Table 9A: 20 mM GSH+2 eq NaOH, then 0.2 mM PIC-1 after 10 min",2.6
same,mean fluorescence,"red blood cells; Table 9A: […] Cys+2 eq NaOH, then 0.2 mM PIC-1 after 10 min",37
same,mean fluorescence,"red blood cells; Table 9B: 0.2 mM PIC-1+2 mM GSH, 0 eq NaOH, no delay (standard)",160 and 151 and 182
same,mean fluorescence,"red blood cells; Table 9B: 5 mM Cys+1 eq NaOH, then 0.2 mM PIC-1 after 10 min",19.28
same,mean fluorescence,"red blood cells; Table 9B: 5 mM Cys+2 eq NaOH, then 0.2 mM PIC-1 after 10 min",14.1
same,mean fluorescence,"red blood cells; Table 9B: 5 mM Cys, 0 eq NaOH, then 0.2 mM PIC-1 after 10 min",49
same,mean fluorescence,"red blood cells; Table 9B: 10 mM Cys+1 eq NaOH, then 0.2 mM PIC-1 after 10 min",5.1
same,mean fluorescence,"red blood cells; Table 9B: 10 mM Cys+2 eq NaOH, then 0.2 mM PIC-1 after 10 min",3.6
same,mean fluorescence,"red blood cells; Table 9B: 10 mM Cys, 0 eq NaOH, then 0.2 mM PIC-1 after 10 min",11.6
same,mean fluorescence,"red blood cells; Table 9B: 20 mM Cys+1 eq NaOH, then 0.2 mM PIC-1 after 10 min",2.5
same,mean fluorescence,"red blood cells; Table 9B: 20 mM Cys, 0 eq NaOH, then 0.2 mM PIC-1 after 10 min",4.3
same,mean fluorescence,"red blood cells; Table 9B: 20 mM GSH+2 eq NaOH, then 0.2 mM PIC-1 after 10 min",6.06 and 5.62 and 5.6
same,mean fluorescence,"red blood cells; Table 9B: […] Cys+1 eq NaOH, then 0.2 mM PIC-1 after 10 min",49.5
same,mean fluorescence,"red blood cells; Table 9B: […] Cys+2 eq NaOH, then 0.2 mM PIC-1 after 10 min",49
same,mean fluorescence,"red blood cells; Table 9B: […] Cys, 0 eq NaOH, then 0.2 mM PIC-1 after 10 min",44
same,mean fluorescence,"red blood cells; Table 11C: 2 mM GSH, 1 eq. base, then 0.2 mM PIC-1",208.05
same,mean fluorescence,"red blood cells; Table 11C: 2 mM GSH, 2 eq. base, then 0.2 mM PIC-1",160.37
same,mean fluorescence,"red blood cells; Table 11C: 2 mM GSH, no added base, then 0.2 mM PIC-1",179.17
same,mean fluorescence,"red blood cells; Table 11C: 5 mM GSH, 1 eq. base, then 0.2 mM PIC-1",87.6
same,mean fluorescence,"red blood cells; Table 11C: 5 mM GSH, 2 eq. base, then 0.2 mM PIC-1",67.56
same,mean fluorescence,"red blood cells; Table 11C: 5 mM GSH, no added base, then 0.2 mM PIC-1",95.57
same,mean fluorescence,"red blood cells; Table 11C: 10 mM GSH, 1 eq. base, then 0.2 mM PIC-1",47.18
same,mean fluorescence,"red blood cells; Table 11C: 10 mM GSH, 2 eq. base, then 0.2 mM PIC-1",27.45
same,mean fluorescence,"red blood cells; Table 11C: 10 mM GSH, no added base, then 0.2 mM PIC-1",88.21
same,mean fluorescence,"red blood cells; Table 11C: 20 mM GSH, 1 eq. base, then 0.2 mM PIC-1",29.97
same,mean fluorescence,"red blood cells; Table 11C: 20 mM GSH, 2 eq. base, then 0.2 mM PIC-1",13.37
same,mean fluorescence,"red blood cells; Table 11C: 20 mM GSH, no added base, then 0.2 mM PIC-1",187.74
same,mean fluorescence,"red blood cells; Table 11C: co-addition std., 2 mM acidic glutathione with 0.2 mM PIC-1",144.33
same,inactivation of a high titer of VSV,[1],essentially complete inactivation
same,leukocyte inactivation (level of detection of limiting dilution assay),leukocytes,5.3 log
same,solubility when formulated together with neutralized glutathione,[2],precipitated out of solution
